Experimental data reported in PubChem BioAssay AID2060606 (Molecular Pharmacology Branch, DTP, NCI, 2025).
Values belong to the compound of their own block, whether it stands above or below them.

System: 922993-354-T-J3-PDC complex spheroids, viability, % test/control
Assay: Anticancer human tumor 922993-354-T-J3-PDC patient-derived endometrial carcinoma cell line growth inhibition [CLK]
Conditions: for IC50: curve of first compound; for viability, T/C: stronger effect = lower value
How it was run: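 Patient-derived tumor cells grown as complex spheroids with HUVEC endothelial cells and mesenchymal stem cells, treated with drug combinations. Concentrations descend in half-log steps from near clinical Cmax, or from 10 microM if Cmax unknown.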

[1] = second compound 0.0316 µM, first compound 0.00316 µM
[2] = second compound 0.0316 µM, first compound 0.01 µM
[3] = second compound 0.0316 µM, first compound 0.0316 µM
[4] = second compound 0.0316 µM, first compound 0.1 µM
[5] = second compound 0.0316 µM, first compound 0.316 µM
[6] = second compound 0.0316 µM, first compound 1 µM
[7] = second compound 0.1 µM, first compound 0.00316 µM
[8] = second compound 0.1 µM, first compound 0.01 µM
[9] = second compound 0.1 µM, first compound 0.0316 µM
[10] = second compound 0.1 µM, first compound 0.1 µM
[11] = second compound 0.1 µM, first compound 0.316 µM
[12] = second compound 0.1 µM, first compound 1 µM
[13] = second compound 0.316 µM, first compound 0.00316 µM
[14] = second compound 0.316 µM, first compound 0.01 µM
[15] = second compound 0.316 µM, first compound 0.0316 µM
[16] = second compound 0.316 µM, first compound 0.1 µM
[17] = second compound 0.316 µM, first compound 0.316 µM
[18] = second compound 0.316 µM, first compound 1 µM
[19] = second compound 1 µM, first compound 0.00316 µM
[20] = second compound 1 µM, first compound 0.01 µM
[21] = second compound 1 µM, first compound 0.0316 µM
[22] = second compound 1 µM, first compound 0.1 µM
[23] = second compound 1 µM, first compound 0.316 µM
[24] = second compound 1 µM, first compound 1 µM
[25] = second compound 3.16 µM, first compound 0.00316 µM
[26] = second compound 3.16 µM, first compound 0.01 µM
[27] = second compound 3.16 µM, first compound 0.0316 µM
[28] = second compound 3.16 µM, first compound 0.1 µM
[29] = second compound 3.16 µM, first compound 0.316 µM
[30] = second compound 3.16 µM, first compound 1 µM
[31] = second compound 10 µM, first compound 0.00316 µM
[32] = second compound 10 µM, first compound 0.01 µM
[33] = second compound 10 µM, first compound 0.0316 µM
[34] = second compound 10 µM, first compound 0.1 µM
[35] = second compound 10 µM, first compound 0.316 µM
[36] = second compound 10 µM, first compound 1 µM
[37] = second compound 0.0316 µM, first compound 3.16 µM
[38] = second compound 0.0316 µM, first compound 10 µM
[39] = second compound 0.1 µM, first compound 3.16 µM
[40] = second compound 0.1 µM, first compound 10 µM
[41] = second compound 0.316 µM, first compound 3.16 µM
[42] = second compound 0.316 µM, first compound 10 µM
[43] = second compound 1 µM, first compound 3.16 µM
[44] = second compound 1 µM, first compound 10 µM
[45] = second compound 3.16 µM, first compound 3.16 µM
[46] = second compound 3.16 µM, first compound 10 µM
[47] = second compound 10 µM, first compound 3.16 µM
[48] = second compound 10 µM, first compound 10 µM
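Note: spheroids exposed to the agents for 7 days before readout.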

IC50 (second compound 0.0316 µM): 19.5 nM
IC50 (second compound 0.1 µM): 22.9 nM
IC50 (second compound 0.316 µM): 16.6 nM
IC50 (second compound 1 µM): < 3.16 nM
IC50 (second compound 3.16 µM): < 3.16 nM
IC50 (second compound 10 µM): < 3.16 nM
Compound: CCc1c2c(nc3ccc(O)cc13)-c1cc3c(c(=O)n1C2)COC(=O)[C@]3(O)CC + CNC(=O)c1ccc(Nc2nc(OC3CCCC3)c3c(-c4ccc5nc(C)oc5c4)c[nH]c3n2)c(OC)c1
viability, T/C [1]: 101%
viability, T/C [2]: 85.3%
viability, T/C [3]: 24.8%
viability, T/C [4]: 15.1%
viability, T/C [5]: 22.3%
viability, T/C [6]: 25.9%
viability, T/C [7]: 99.2%
viability, T/C [8]: 79.2%
viability, T/C [9]: 40.6%
viability, T/C [10]: 15.1%
viability, T/C [11]: 20.7%
viability, T/C [12]: 29.9%
viability, T/C [13]: 64.2%
viability, T/C [14]: 63.4%
viability, T/C [15]: 32.6%
viability, T/C [16]: 16%
viability, T/C [17]: 21.4%
viability, T/C [18]: 31.4%
viability, T/C [19]: 32.1%
viability, T/C [20]: 39.8%
viability, T/C [21]: 13.2%
viability, T/C [22]: 13.6%
viability, T/C [23]: 20.3%
viability, T/C [24]: 18.5%
viability, T/C [25]: 34.4%
viability, T/C [26]: 28.1%
viability, T/C [27]: 14.6%
viability, T/C [28]: 13.8%
viability, T/C [29]: 17.4%
viability, T/C [30]: 17.7%
viability, T/C [31]: 30%
viability, T/C [32]: 21.8%
viability, T/C [33]: 12.6%
viability, T/C [34]: 14.6%
viability, T/C [35]: 16.5%
viability, T/C [36]: 17.6%

IC50 (second compound 0.0316 µM): > 100 nM
IC50 (second compound 0.1 µM): > 100 nM
IC50 (second compound 0.316 µM): > 100 nM
IC50 (second compound 1 µM): < 0.316 nM
IC50 (second compound 3.16 µM): < 0.316 nM
IC50 (second compound 10 µM): < 0.316 nM
Compound: Cn1ncnc1[C@H]1c2n[nH]c(=O)c3cc(F)cc(c23)N[C@@H]1c1ccc(F)cc1 + CNC(=O)c1ccc(Nc2nc(OC3CCCC3)c3c(-c4ccc5nc(C)oc5c4)c[nH]c3n2)c(OC)c1
viability, T/C (second compound 0.0316 µM, first compound 0.000316 µM): 92%
viability, T/C (second compound 0.0316 µM, first compound 0.001 µM): 99.2%
viability, T/C [1]: 88.9%
viability, T/C [2]: 104%
viability, T/C [3]: 97.6%
viability, T/C [4]: 84.6%
viability, T/C (second compound 0.1 µM, first compound 0.000316 µM): 109%
viability, T/C (second compound 0.1 µM, first compound 0.001 µM): 114%
viability, T/C [7]: 106%
viability, T/C [8]: 104%
viability, T/C [9]: 113%
viability, T/C [10]: 94.4%
viability, T/C (second compound 0.316 µM, first compound 0.000316 µM): 77.3%
viability, T/C (second compound 0.316 µM, first compound 0.001 µM): 64.4%
viability, T/C [13]: 56.6%
viability, T/C [14]: 73.2%
viability, T/C [15]: 76.1%
viability, T/C [16]: 57.2%
viability, T/C (second compound 1 µM, first compound 0.000316 µM): 36.9%
viability, T/C (second compound 1 µM, first compound 0.001 µM): 34%
viability, T/C [19]: 32.4%
viability, T/C [20]: 33.9%
viability, T/C [21]: 32.4%
viability, T/C [22]: 27.1%
viability, T/C (second compound 3.16 µM, first compound 0.000316 µM): 28.9%
viability, T/C (second compound 3.16 µM, first compound 0.001 µM): 33.7%
viability, T/C [25]: 32.1%
viability, T/C [26]: 30.8%
viability, T/C [27]: 28%
viability, T/C [28]: 21%
viability, T/C (second compound 10 µM, first compound 0.000316 µM): 28.8%
viability, T/C (second compound 10 µM, first compound 0.001 µM): 34.2%
viability, T/C [31]: 31.2%
viability, T/C [32]: 28.8%
viability, T/C [33]: 24.1%
viability, T/C [34]: 20.8%

IC50 (second compound 0.0316 µM): < 31.6 nM
IC50 (second compound 0.1 µM): < 31.6 nM
IC50 (second compound 0.316 µM): < 31.6 nM
IC50 (second compound 1 µM): < 31.6 nM
IC50 (second compound 3.16 µM): < 31.6 nM
IC50 (second compound 10 µM): < 31.6 nM
Compound: Nc1ccn(C2OC(CO)C(O)C2(F)F)c(=O)n1 (stereo not given) + CNC(=O)c1ccc(Nc2nc(OC3CCCC3)c3c(-c4ccc5nc(C)oc5c4)c[nH]c3n2)c(OC)c1
viability, T/C [3]: 15.7%
viability, T/C [4]: 17.5%
viability, T/C [5]: 18%
viability, T/C [6]: 16.6%
viability, T/C [37]: 15.5%
viability, T/C [38]: 18.3%
viability, T/C [9]: 17.9%
viability, T/C [10]: 16.2%
viability, T/C [11]: 15.7%
viability, T/C [12]: 14.9%
viability, T/C [39]: 12.5%
viability, T/C [40]: 17.3%
viability, T/C [15]: 15.7%
viability, T/C [16]: 15.5%
viability, T/C [17]: 16.5%
viability, T/C [18]: 18.1%
viability, T/C [41]: 16.9%
viability, T/C [42]: 17.2%
viability, T/C [21]: 14.7%
viability, T/C [22]: 14.6%
viability, T/C [23]: 12.9%
viability, T/C [24]: 13.3%
viability, T/C [43]: 14.8%
viability, T/C [44]: 13.2%
viability, T/C [27]: 13.6%
viability, T/C [28]: 15.8%
viability, T/C [29]: 11.8%
viability, T/C [30]: 12.4%
viability, T/C [45]: 12.9%
viability, T/C [46]: 13.1%
viability, T/C [33]: 13%
viability, T/C [34]: 12.5%
viability, T/C [35]: 10.8%
viability, T/C [36]: 11.6%
viability, T/C [47]: 12.7%
viability, T/C [48]: 11.4%

IC50 (second compound 0.0316 µM): > 10000 nM
IC50 (second compound 0.1 µM): > 10000 nM
IC50 (second compound 0.316 µM): > 10000 nM
IC50 (second compound 1 µM): < 31.6 nM
IC50 (second compound 3.16 µM): < 31.6 nM
IC50 (second compound 10 µM): < 31.6 nM
Compound: O=C(c1cc(Cc2n[nH]c(=O)c3ccccc23)ccc1F)N1CCN(C(=O)C2CC2)CC1 + CNC(=O)c1ccc(Nc2nc(OC3CCCC3)c3c(-c4ccc5nc(C)oc5c4)c[nH]c3n2)c(OC)c1
viability, T/C [3]: 99.4%
viability, T/C [4]: 106%
viability, T/C [5]: 101%
viability, T/C [6]: 106%
viability, T/C [37]: 110%
viability, T/C [38]: 101%
viability, T/C [9]: 104%
viability, T/C [10]: 107%
viability, T/C [11]: 98.3%
viability, T/C [12]: 105%
viability, T/C [39]: 111%
viability, T/C [40]: 101%
viability, T/C [15]: 73.5%
viability, T/C [16]: 72.1%
viability, T/C [17]: 67.1%
viability, T/C [18]: 66.5%
viability, T/C [41]: 66%
viability, T/C [42]: 51.8%
viability, T/C [21]: 36.1%
viability, T/C [22]: 38.5%
viability, T/C [23]: 32.3%
viability, T/C [24]: 35.6%
viability, T/C [43]: 44.1%
viability, T/C [44]: 39%
viability, T/C [27]: 32.2%
viability, T/C [28]: 36.8%
viability, T/C [29]: 25.4%
viability, T/C [30]: 34%
viability, T/C [45]: 28.4%
viability, T/C [46]: 33.5%
viability, T/C [33]: 34.1%
viability, T/C [34]: 24.7%
viability, T/C [35]: 31.5%
viability, T/C [36]: 34.2%
viability, T/C [47]: 34.8%
viability, T/C [48]: 33.8%

IC50 (second compound 0.0316 µM): 7510 nM
IC50 (second compound 0.1 µM): 4990 nM
IC50 (second compound 0.316 µM): 4060 nM
IC50 (second compound 1 µM): < 31.6 nM
IC50 (second compound 3.16 µM): < 31.6 nM
IC50 (second compound 10 µM): < 31.6 nM
Compound: O=c1[nH]cc(F)c(=O)[nH]1 + CNC(=O)c1ccc(Nc2nc(OC3CCCC3)c3c(-c4ccc5nc(C)oc5c4)c[nH]c3n2)c(OC)c1
viability, T/C [3]: 110%
viability, T/C [4]: 104%
viability, T/C [5]: 103%
viability, T/C [6]: 103%
viability, T/C [37]: 75.5%
viability, T/C [38]: 41.6%
viability, T/C [9]: 91.3%
viability, T/C [10]: 119%
viability, T/C [11]: 106%
viability, T/C [12]: 98.2%
viability, T/C [39]: 64.3%
viability, T/C [40]: 28.3%
viability, T/C [15]: 68%
viability, T/C [16]: 64%
viability, T/C [17]: 57.7%
viability, T/C [18]: 60.7%
viability, T/C [41]: 56.5%
viability, T/C [42]: 29.9%
viability, T/C [21]: 34%
viability, T/C [22]: 40.4%
viability, T/C [23]: 33.7%
viability, T/C [24]: 31.7%
viability, T/C [43]: 32.9%
viability, T/C [44]: 23.9%
viability, T/C [27]: 33.4%
viability, T/C [28]: 37.3%
viability, T/C [29]: 31.5%
viability, T/C [30]: 29.5%
viability, T/C [45]: 28.5%
viability, T/C [46]: 20.8%
viability, T/C [33]: 35.1%
viability, T/C [34]: 30.4%
viability, T/C [35]: 29%
viability, T/C [36]: 29%
viability, T/C [47]: 31.2%
viability, T/C [48]: 19.7%
